{"source": "ChEMBL document CHEMBL3351946", "about": "“Design and synthesis of potent antitumor water-soluble phenyl N-mustard-benzenealkylamide conjugates via a bioisostere approach” (Eur J Med Chem, 2014)", "key": {"[1]": {"experiment": "Cell cycle arrest in human HCT116 cells assessed as accumulation at S phase at 1 uM after 24 hrs by FACS flow cytometric analysis (reference value: 18.71 +/- 2.25%)", "assay_type": "functional, cell-based", "settings": "HCT-116"}, "[2]": {"experiment": "Cell cycle arrest in human HCT116 cells assessed as accumulation at sub-G1 phase at 1 uM after 24 hrs by FACS flow cytometric analysis (reference value: 1.37 +/- 0.95%)", "assay_type": "functional, cell-based", "settings": "HCT-116"}, "[3]": {"experiment": "Toxicity in iv dosed CD-1 (ICR) mouse measured for 14 days", "assay_type": "organism-based", "settings": "in vivo"}, "[4]": {"experiment": "Cell cycle arrest in human HCT116 cells assessed as accumulation at G1 phase at 4 uM after 48 hrs by FACS flow cytometric analysis (reference value: 62.16 +/- 5.94%)", "assay_type": "functional, cell-based", "settings": "HCT-116"}, "[5]": {"experiment": "Cell cycle arrest in human HCT116 cells assessed as accumulation at G2/M phase at 4 uM after 48 hrs by FACS flow cytometric analysis (reference value: 23.95 +/- 1.87%)", "assay_type": "functional, cell-based", "settings": "HCT-116"}, "[6]": {"experiment": "Oral bioavailability in Sprague-Dawley rat at 50 mg/kg", "assay_type": "ADME, organism-based", "settings": "in vivo"}, "Mus musculus [7]": {"tested_on": "Mus musculus", "experiment": "Toxicity in iv dosed CD-1 (ICR) mouse assessed as dehydration measured for 14 days", "assay_type": "organism-based", "settings": "in vivo, 336 h"}, "[8]": {"experiment": "Cell cycle arrest in human HCT116 cells assessed as accumulation at S phase at 4 uM after 48 hrs by FACS flow cytometric analysis (reference value: 12.11 +/- 4.28%)", "assay_type": "functional, cell-based", "settings": "HCT-116"}, "Mus musculus [9]": {"tested_on": "Mus musculus", "experiment": "Toxicity in iv dosed CD-1 (ICR) mouse assessed as feces stain measured for 14 days", "assay_type": "organism-based", "settings": "in vivo, 336 h"}, "[10]": {"experiment": "Cell cycle arrest in human HCT116 cells assessed as accumulation at sub-G1 phase at 4 uM after 24 hrs by FACS flow cytometric analysis (reference value: 1.37 +/- 0.95%)", "assay_type": "functional, cell-based", "settings": "HCT-116"}, "[11]": {"experiment": "Antitumor activity against human H3347 cells xenografted in nude mouse assessed as tumor growth inhibition at 30 mg/kg,iv qd administered for 6 days measured on day 31 relative to control", "assay_type": "functional", "settings": "read-out: TGI"}, "[12]": {"experiment": "Cytotoxicity against human H460 cells assessed as growth inhibition after 72 hrs by Alamar Blue assay", "assay_type": "functional, cell-based", "settings": "NCI-H460, 72 h"}, "Mus musculus [13]": {"tested_on": "Mus musculus", "experiment": "Toxicity in iv dosed CD-1 (ICR) mouse assessed as hunch posture measured for 14 days", "assay_type": "organism-based", "settings": "in vivo, 336 h"}, "[14]": {"experiment": "Cell cycle arrest in human HCT116 cells assessed as accumulation at G1 phase at 2 uM after 48 hrs by FACS flow cytometric analysis (reference value: 62.16 +/- 5.94%)", "assay_type": "functional, cell-based", "settings": "HCT-116"}, "[15]": {"experiment": "Cell cycle arrest in human HCT116 cells assessed as accumulation at S phase at 2 uM after 72 hrs by FACS flow cytometric analysis (reference value: 7.49 +/- 0.95%)", "assay_type": "functional, cell-based", "settings": "HCT-116"}, "[16]": {"experiment": "Cell cycle arrest in human HCT116 cells assessed as accumulation at G1 phase at 1 uM after 24 hrs by FACS flow cytometric analysis (reference value: 48.75 +/- 3.69%)", "assay_type": "functional, cell-based", "settings": "HCT-116"}, "[17]": {"experiment": "Cell cycle arrest in human HCT116 cells assessed as accumulation at G1 phase at 1 uM after 72 hrs by FACS flow cytometric analysis (reference value: 76.29 +/- 2.65%)", "assay_type": "functional, cell-based", "settings": "HCT-116"}, "[18]": {"experiment": "Cell cycle arrest in human HCT116 cells assessed as accumulation at S phase at 1 uM after 48 hrs by FACS flow cytometric analysis (reference value: 12.11 +/- 4.28%)", "assay_type": "functional, cell-based", "settings": "HCT-116"}, "[19]": {"experiment": "Antitumor activity against human HCT116 cells xenografted in nude mouse assessed as tumor growth inhibition at 30 mg/kg,iv qd administered for 6 days measured on day 15 relative to control", "assay_type": "functional, HCT-116"}, "[20]": {"experiment": "Cell cycle arrest in human HCT116 cells assessed as accumulation at sub-G1 phase at 2 uM after 24 hrs by FACS flow cytometric analysis (reference value: 1.37 +/- 0.95%)", "assay_type": "functional, cell-based", "settings": "HCT-116"}, "[21]": {"experiment": "Cell cycle arrest in human HCT116 cells assessed as accumulation at G2/M phase at 4 uM after 72 hrs by FACS flow cytometric analysis (reference value: 12.82 +/- 2.19%)", "assay_type": "functional, cell-based", "settings": "HCT-116"}, "Mus musculus [22]": {"tested_on": "Mus musculus", "experiment": "Toxicity in nude mouse xenografted with human HCT116 cells assessed as change in body weight at 30 mg/kg,iv qd administered for 6 days measured on day 31 relative to control", "assay_type": "organism-based, HCT-116", "design": "dose 30 mg/kg", "settings": "in vivo, 144 h"}, "[23]": {"experiment": "Antitumor activity against human PC3 cells xenografted in nude mouse assessed as tumor growth inhibition at 40 mg/kg,iv administered every 2 days for 5 doses measured on day 38 relative to control", "assay_type": "functional", "settings": "PC-3, iv, read-out: TGI"}, "[24]": {"experiment": "Cytotoxicity against human DLD1 cells assessed as growth inhibition after 72 hrs by Alamar Blue assay", "assay_type": "functional, cell-based", "settings": "DLD-1, 72 h"}, "NCI-H460": {"tested_on": "NCI-H460", "experiment": "Antitumor activity against human H460 cells xenografted in nude mouse assessed as survival at 30 mg/kg,iv qd administered for 6 days", "assay_type": "functional, organism-based", "design": "dose 30 mg/kg"}, "Mus musculus [25]": {"tested_on": "Mus musculus", "experiment": "Toxicity in nude mouse xenografted with human PC3 cells assessed as body weight loss at 40 mg/kg,iv administered every 2 days for 5 doses measured on day 16 relative to control", "assay_type": "organism-based, PC-3", "design": "dose 40 mg/kg", "settings": "in vivo, 48 h"}, "[26]": {"experiment": "Antitumor activity against human PC3 cells xenografted in nude mouse assessed as tumor growth inhibition at 30 mg/kg,iv qd administered for 6 days measured on day 21 relative to control", "assay_type": "functional, PC-3"}, "[27]": {"experiment": "Antitumor activity against human H3347 cells xenografted in nude mouse assessed as tumor growth inhibition at 30 mg/kg,iv qd administered for 6 days measured on day 15 relative to control", "assay_type": "functional"}, "[28]": {"experiment": "Cell cycle arrest in human HCT116 cells assessed as accumulation at G2/M phase at 1 uM after 72 hrs by FACS flow cytometric analysis (reference value: 12.82 +/- 2.19%)", "assay_type": "functional, cell-based", "settings": "HCT-116"}, "Mus musculus [29]": {"tested_on": "Mus musculus", "experiment": "Toxicity in CD-1 (ICR) mouse assessed as gross lesions in thymus at 150 mg/kg, iv measured for 14 days", "assay_type": "organism-based", "design": "dose 150 mg/kg, route intravenous", "settings": "in vivo, 336 h"}, "HCT-116": {"tested_on": "HCT-116", "experiment": "Antitumor activity against human HCT116 cells xenografted in nude mouse assessed as survival at 30 mg/kg,iv qd administered for 6 days", "assay_type": "functional, organism-based", "design": "dose 30 mg/kg"}, "Mus musculus [30]": {"tested_on": "Mus musculus", "experiment": "Toxicity in nude mouse xenografted with human PC3 cells assessed as body weight loss at 30 mg/kg,iv qd administered for 6 days measured on day 13 relative to control", "assay_type": "organism-based, PC-3", "design": "dose 30 mg/kg", "settings": "in vivo, 144 h"}, "[31]": {"experiment": "Cell cycle arrest in human HCT116 cells assessed as accumulation at G2/M phase after 24 hrs by FACS flow cytometric analysis", "assay_type": "functional, cell-based", "settings": "HCT-116"}, "[32]": {"experiment": "Antitumor activity against human PC3 cells xenografted in nude mouse assessed as tumor growth inhibition at 50 mg/kg,iv administered every 2 days for 5 doses measured on day 38 relative to control", "assay_type": "functional", "settings": "PC-3, iv, read-out: TGI"}, "Mus musculus [33]": {"tested_on": "Mus musculus", "experiment": "Toxicity in nude mouse xenografted with human PC3 cells assessed as body weight loss at 50 mg/kg,iv administered every 2 days for 5 doses measured on day 16 relative to control", "assay_type": "organism-based, PC-3", "design": "dose 50 mg/kg", "settings": "in vivo, 48 h"}, "[34]": {"experiment": "Cytotoxicity against human H3347 cells assessed as growth inhibition after 72 hrs by Alamar Blue assay", "assay_type": "functional, cell-based", "settings": "H3347, 72 h"}, "Mus musculus [35]": {"tested_on": "Mus musculus", "experiment": "Toxicity in iv dosed CD-1 (ICR) mouse assessed as piloerection measured for 14 days", "assay_type": "organism-based", "settings": "in vivo, 336 h"}, "Mus musculus [36]": {"tested_on": "Mus musculus", "experiment": "Toxicity in iv dosed CD-1 (ICR) mouse assessed as hypoactivity measured for 14 days", "assay_type": "organism-based", "settings": "in vivo, 336 h"}}, "note": "Activity calls are given as the source filed them. The rule behind the calls is not given here."}
{"molecule": "CCN(CC)CC(=O)Nc1ccc(NC(=O)Nc2ccc(N(CCCl)CCCl)cc2)cc1", "values": [{"measurement": "Activity", "setting": "[1]", "value": 18.7, "unit": "%"}, {"measurement": "Activity", "setting": "[2]", "value": 1.58, "unit": "%"}, {"measurement": "LD50 at 336 h", "setting": "[3]", "value": 115, "unit": "mg/kg"}, {"measurement": "Activity", "setting": "[4]", "value": 19, "unit": "%"}, {"measurement": "Activity", "setting": "[5]", "value": 54.1, "unit": "%"}, {"measurement": "bioavailability", "setting": "[6]", "value": 5.32, "unit": "%"}, {"measurement": "Activity", "setting": "Mus musculus [7]", "value": "Dose-dependent effect"}, {"measurement": "Activity", "setting": "[8]", "value": 16.6, "unit": "%"}, {"measurement": "Activity", "setting": "Mus musculus [9]", "value": "Dose-dependent effect"}, {"measurement": "Activity", "setting": "[10]", "value": 4.31, "unit": "%"}, {"measurement": "inhibition in vivo at 30 mg/kg", "setting": "[11]", "value": 90, "unit": "%"}, {"measurement": "IC50", "setting": "[12]", "value": 930, "unit": "nM"}, {"measurement": "Activity", "setting": "Mus musculus [13]", "value": "Dose-dependent effect"}, {"measurement": "Activity", "setting": "[14]", "value": 49.5, "unit": "%"}, {"measurement": "Activity", "setting": "[15]", "value": 12.1, "unit": "%"}, {"measurement": "Activity", "setting": "[16]", "value": 17.3, "unit": "%"}, {"measurement": "Activity", "setting": "[17]", "value": 54.9, "unit": "%"}, {"measurement": "Activity", "setting": "[18]", "value": 11.9, "unit": "%"}, {"measurement": "%max", "setting": "[19]", "value": 91, "unit": "%"}, {"measurement": "Activity", "setting": "[20]", "value": 1.55, "unit": "%"}, {"measurement": "Activity", "setting": "[21]", "value": 41.4, "unit": "%"}, {"measurement": "Activity", "setting": "Mus musculus [22]", "value": 9, "unit": "%"}, {"measurement": "inhibition in vivo at 40 mg/kg", "setting": "[23]", "value": 3, "unit": "%"}, {"measurement": "IC50", "setting": "[24]", "value": 3850, "unit": "nM"}, {"measurement": "Activity", "setting": "NCI-H460", "value": "Active"}, {"measurement": "%max", "setting": "Mus musculus [25]", "value": -15, "unit": "%"}, {"measurement": "%max", "setting": "[26]", "value": 56, "unit": "%"}, {"measurement": "%max", "setting": "[27]", "value": 94, "unit": "%"}, {"measurement": "Activity", "setting": "[28]", "value": 20.5, "unit": "%"}, {"measurement": "Activity", "setting": "Mus musculus [29]", "value": "Toxic"}, {"measurement": "Activity", "setting": "HCT-116", "value": "Active"}, {"measurement": "%max", "setting": "Mus musculus [30]", "value": -15, "unit": "%"}, {"measurement": "Activity", "setting": "[31]", "value": "Dose-dependent effect"}, {"measurement": "inhibition in vivo at 50 mg/kg", "setting": "[32]", "value": 62, "unit": "%"}, {"measurement": "%max", "setting": "Mus musculus [33]", "value": -16, "unit": "%"}, {"measurement": "IC50", "setting": "[34]", "value": 870, "unit": "nM"}, {"measurement": "Activity", "setting": "Mus musculus [35]", "value": "Dose-dependent effect"}, {"measurement": "Activity", "setting": "Mus musculus [36]", "value": "Dose-dependent effect"}]}
